# Laboratory results taken from publication PMC9080097, “Identification of absorbed constituents and evaluation of the pharmacokinetics of main compounds after oral administration of yindanxinnaotong by UPLC-Q-TOF-MS and UPLC-QqQ-MS” (RSC Advances, 2018).
# Legend:
# [1] = Pharmacokinetics study in rats after oral administration of YDXNT (UPLC-QqQ-MS of plasma)
# Method: (§1) Six milliliters of 75% methanol was added to two milliliters of prepared plasma and then vortexed for 60 s. The mixture was centrifuged at 4000 rpm for 10 min at 4 °C. The supernatant was transferred to another EP tube and dried using a pressure blowing concentrator. The residue was redissolved with 200 μL of 75% methanol, vortexed for 60 s, and then centrifuged at 13 000 rpm for 10 min. To an aliquot of 200 μL plasma, 120 μL of 0.2 mol L^−1 acetic acid–sodium acetate buffer solution (pH = 4.6), 100 μL of the IS baicalein and 80 μL of 980 U mL^−1 β-glucuronidase and sulfatase was added and then vortexed for 1 min. The mixture was hydrolyzed in a water bath at 37 °C for 30 min, and 600 μL acetone was added to stop the hydrolysis. The sample was cooled, followed by vortexing for 2 min and then centrifugation at 13 000 rpm for 10 min. The supernatant fluid was evaporated to dryness under a flow of nitrogen gas.
# (§2) Chromatographic analysis was performed using an Agilent 1290 Series UPLC from Agilent Technologies (Palo Alto, CA, USA), equipped with a quaternary pump an online degasser, auto-sampler and column oven. Chromatographic separation was performed on the Agilent ZORBAX SB-Aq C18 column (100 mm × 2.1 mm, 1.8 μm, Agilent, USA). The analytical column temperature was maintained at 30 °C and eluted with a mobile phase comprising 0.1% formic acid in water (A) and acetonitrile (B) using the following gradient program: 25–90% B from 0 to 1 min, 90% B from 1 to 3.5 min, and 90–25% B from 3.5 to 5 min at a flow rate of 0.3 mL min^−1. The equilibration time was 5 min, and the injection volume of sample and reference constituents was 5 μL.
# (§3) Mass spectrometry was performed on the Agilent 6490 triple-quadrupole mass spectrometer (Palo Alto, CA, USA) equipped with an atmospheric pressure chemical ionization (APCI) interface. The mass spectrometer was set in negative ionization mode, with the capillary voltage set at 3500 V. The other parameters in the source were set as follows: desolvation gas flow, 15 L min^−1; source temperature, 290 °C; N2 sheath gas temperature, 350 °C; nebulizer gas (N2) pressure, 50 psi; flow, 12 L min^−1. The mass spectrometer scanned in multiple reaction monitoring (MRM) mode.
# (§4) Six male rats were used in the pharmacokinetics study. All the rats were orally administered 2.4 g kg^−1 YXCNT suspended in an aqueous solution of 0.5% carboxymethyl cellulose sodium (QCT: 4.118 mg; KMF: 5.067 mg; ISR: 0.965 mg; GA: 1.416 mg; GB: 0.680 mg; GC: 0.796 mg; BB: 0.326 mg; TSIIA: 0.624 mg; SAB: 3.84 mg). After dosing for 0 min, 5 min, 15 min, 20 min, 30 min, 45 min, 1 h, 1.5 h, 2 h, 3 h, 4 h, 6 h, 8 h, 12 h, and 24 h, blood samples (500 μL) were drawn from the retro-orbital plexus of each mouse and collected in heparinized tubes according to the specific schedule. All the collected blood samples were immediately centrifuged at 13 000 rpm for 10 min. The plasma layer was transferred to clean tubes and stored at −20 °C until analysis. The plasma concentrations of QCT, ISR, KMF, GA, GB, GC, BB, TSIIA, and SAB were expressed as the mean ± standard deviation (SD), and the mean concentration–time curve was plotted. Non-compartmental pharmacokinetic parameters were computed using DAS 2.1.1 software.
# [2] = Stability of the analytes in rat plasma QC samples (short-term, autosampler, freeze-thaw, long-term); conditions: n = 6
# in vivo = conditions: male, Sprague-Dawley, rat, po
# Method: as §1, §2, §3, §4
# [3] = male, Sprague-Dawley, rat, plasma, po, 4.8 g kg^−1 d^−1
# [4] = 1 ng mL^−1, -20°C for four weeks
# [5] = 1 ng mL^−1, room temperature for 6 h before sample preparation
# [6] = 1 ng mL^−1, room temperature for 12 h in the autosampler after sample preparation
# [7] = 1 ng mL^−1, three freeze-thaw cycles -20°C to ambient temperature
# [8] = 10 ng mL^−1, -20°C for four weeks
# [9] = 10 ng mL^−1, room temperature for 6 h before sample preparation
# [10] = 10 ng mL^−1, room temperature for 12 h in the autosampler after sample preparation
# [11] = 10 ng mL^−1, three freeze-thaw cycles -20°C to ambient temperature
# [12] = 100 ng mL^−1, -20°C for four weeks
# [13] = 100 ng mL^−1, room temperature for 6 h before sample preparation
# [14] = 100 ng mL^−1, room temperature for 12 h in the autosampler after sample preparation
# [15] = 100 ng mL^−1, three freeze-thaw cycles -20°C to ambient temperature
# [16] = rat plasma, oral YDXNT 4.8 g kg^−1 d^−1 (2.4 g kg^−1 in source), n = 6, mean ± SD
# [17] = rat plasma, oral YDXNT 4.8 g kg^−1 d^−1 (2.4 g kg^−1 in source), n = 6, non-compartmental
"AUC(0-inf) [1, 3]","AUC(0-t) [1, 3]","Cmax [1, 3]","MRT [1, 3]","Tmax [1, 3]","half-life [1, 3]",Compound,"Long-term stability Accuracy [2, 4]","Short-term stability Accuracy [2, 5]","Autosampler stability Accuracy [2, 6]","Freeze–thaw strability (three cycles) Accuracy [2, 7]","Long-term stability Accuracy [2, 8]","Short-term stability Accuracy [2, 9]","Autosampler stability Accuracy [2, 10]","Freeze–thaw strability (three cycles) Accuracy [2, 11]","Long-term stability Accuracy [2, 12]","Short-term stability Accuracy [2, 13]","Autosampler stability Accuracy [2, 14]","Freeze–thaw strability (three cycles) Accuracy [2, 15]",further results
,,,,,,"C[C@@H]1C(=O)O[C@H]2C[C@@]34[C@H]5C[C@@H](C(C)(C)C)[C@]36[C@@H](OC(=O)[C@@H]6O)O[C@@]4(C(=O)O5)[C@]21O [GA, ginkgolide A]",98.92 ± 5.81%,100.59 ± 6.08%,97.28 ± 2.19%,102.76 ± 5.39%,95.48 ± 10.28%,102.54 ± 7.33%,98.33 ± 3.46%,98.42 ± 2.84%,92.19 ± 8.81%,98.31 ± 5.29%,96.83 ± 8.30%,95.44 ± 7.51%,AUC(0-inf) (in vivo): 545 ± 78.9 ng·h/mL; AUC(0-t) (in vivo): 491 ± 72.6 ng·h/mL; Cmax (in vivo): 76.3 ± 18.2 ng/mL; MRT (in vivo): 9.42 ± 1.77 h; Tmax (in vivo): 0.75 ± 0.29 h; half-life (in vivo): 7.52 ± 2.08 h
,,,,,,"COc1cc(-c2oc3cc(O)cc(O)c3c(=O)c2O)ccc1O [ISR, isorhamnetin]",98.35 ± 6.27%,99.24 ± 6.68%,98.06 ± 8.29%,103.15 ± 5.43%,96.44 ± 6.33%,96.28 ± 5.89%,97.72 ± 3.83%,94.52 ± 3.68%,95.76 ± 8.18%,102.18 ± 4.95%,98.34 ± 7.61%,99.63 ± 3.38%,AUC(0-inf) (in vivo): 384 ± 55.1 ng·h/mL; AUC(0-t) (in vivo): 319 ± 49.3 ng·h/mL; Cmax (in vivo): 27.9 ± 8.38 ng/mL; MRT (in vivo): 13.9 ± 3.71 h; Tmax (in vivo): 0.33 ± 0.14 h; half-life (in vivo): 8.19 ± 2.42 h
539 ± 82.3 ng·h/mL,401 ± 84.4 ng·h/mL,49.9 ± 13.8 ng/mL,17.1 ± 4.42 h,0.5 ± 0.23 h,8.19 ± 2.42 h,"O=c1c(O)c(-c2ccc(O)cc2)oc2cc(O)cc(O)c12 [KMF, kaempferol]",98.70 ± 9.35%,96.50 ± 6.47%,99.17 ± 4.39%,101.23 ± 8.76%,100.48 ± 7.44%,101.22 ± 2.09%,102.65 ± 5.28%,103.21 ± 4.14%,95.21 ± 5.96%,97.10 ± 3.69%,95.96 ± 3.11%,94.24 ± 6.63%,
412 ± 82.7 ng·h/mL,410 ± 73.2 ng·h/mL,45 ± 11.3 ng/mL,8.44 ± 1.24 h,0.33 ± 0.11 h,2.69 ± 0.65 h,"O=c1c(O)c(-c2ccc(O)c(O)c2)oc2cc(O)cc(O)c12 [QCT, quercetin]",97.57 ± 3.42%,100.23 ± 1.69%,103.73 ± 5.52%,98.27 ± 6.33%,96.41 ± 5.79%,97.45 ± 4.23%,99.34 ± 6.73%,100.31 ± 4.27%,93.17 ± 7.35%,95.97 ± 2.36%,94.22 ± 5.14%,98.35 ± 7.84%,
183 ± 77.4 ng·h/mL,167 ± 69.5 ng·h/mL,38.3 ± 17.4 ng/mL,9.89 ± 1.5 h,0.25 ± 0.23 h,7.04 ± 2.18 h,"Cc1coc2c1C(=O)C(=O)c1c-2ccc2c1CCCC2(C)C [TSIIA, tanshinone IIA]",101.23 ± 8.76%,96.50 ± 6.47%,102.65 ± 5.28%,100.31 ± 4.27%,103.21 ± 4.14%,101.22 ± 2.09%,95.96 ± 3.11%,101.22 ± 2.09%,94.24 ± 6.63%,95.96 ± 3.11%,99.15 ± 5.73%,95.97 ± 2.36%,
,,,,,,salvianolic acid B [SAB],,,,,,,,,,,,,"C max [1, 16]: 32.00 ± 15.43 ng/mL; T max [1, 16]: 0.75 ± 0.18 h; AUC0–INF [1, 17]: 135.72 ± 64.24; MRT [1, 17]: 9.46 ± 2.37 h; T 1/2 [1, 17]: 12.17 ± 3.33 h; AUC0–t ([1]; rat plasma, oral YDXNT 4.8 g kg^−1 d^−1 (2.4 g kg^−1 in source), n = 6, sampling to 24 h, non-compartmental): 118.17 ± 58.46; Long-term stability Accuracy ([2]; 5 ng mL^−1, -20°C for four weeks): 102.76 ± 5.39%; Short-term stability Accuracy ([2]; 5 ng mL^−1, room temperature for 6 h before sample preparation): 97.28 ± 2.19%; Autosampler stability Accuracy ([2]; 5 ng mL^−1, room temperature for 12 h in the autosampler after sample preparation): 96.38 ± 8.63%; Freeze–thaw strability (three cycles) Accuracy ([2]; 5 ng mL^−1, three freeze-thaw cycles -20°C to ambient temperature): 99.24 ± 6.68%; Long-term stability Accuracy ([2]; 50 ng mL^−1, -20°C for four weeks): 95.72 ± 6.59%; Short-term stability Accuracy ([2]; 50 ng mL^−1, room temperature for 6 h before sample preparation): 96.44 ± 6.33%; Autosampler stability Accuracy ([2]; 50 ng mL^−1, room temperature for 12 h in the autosampler after sample preparation): 96.41 ± 5.79%; Freeze–thaw strability (three cycles) Accuracy ([2]; 50 ng mL^−1, three freeze-thaw cycles -20°C to ambient temperature): 98.88 ± 3.59%; Long-term stability Accuracy ([2]; 500 ng mL^−1, -20°C for four weeks): 97.38 ± 4.39%; Short-term stability Accuracy ([2]; 500 ng mL^−1, room temperature for 6 h before sample preparation): 95.76 ± 8.18%; Autosampler stability Accuracy ([2]; 500 ng mL^−1, room temperature for 12 h in the autosampler after sample preparation): 93.17 ± 7.35%; Freeze–thaw strability (three cycles) Accuracy ([2]; 500 ng mL^−1, three freeze-thaw cycles -20°C to ambient temperature): 95.47 ± 4.92%"

Compound,"AUC(0-inf) [1, 3]","AUC(0-t) [1, 3]","Cmax [1, 3]","MRT [1, 3]","Tmax [1, 3]","half-life [1, 3]","Long-term stability Accuracy [2, 4]","Short-term stability Accuracy [2, 5]","Autosampler stability Accuracy [2, 6]","Freeze–thaw strability (three cycles) Accuracy [2, 7]","Long-term stability Accuracy [2, 8]","Short-term stability Accuracy [2, 9]","Autosampler stability Accuracy [2, 10]","Freeze–thaw strability (three cycles) Accuracy [2, 11]","Long-term stability Accuracy [2, 12]","Short-term stability Accuracy [2, 13]","Autosampler stability Accuracy [2, 14]","Freeze–thaw strability (three cycles) Accuracy [2, 15]",further results
"CC(C)(C)[C@]1(O)CC2OC(=O)CC23C(=O)OC2OC(=O)[C@H](O)C231 (stereo partly drawn) [BB, bilobalide]",384 ± 51.5 ng·h/mL,366 ± 48.4 ng·h/mL,48.7 ± 12.3 ng/mL,9.62 ± 3.18 h,0.75 ± 0.5 h,5.55 ± 2.67 h,99.15 ± 5.73%,98.10 ± 7.83%,103.47 ± 6.75%,99.85 ± 6.27%,96.38 ± 8.63%,99.78 ± 5.25%,95.29 ± 2.77%,98.88 ± 3.59%,95.54 ± 7.76%,94.05 ± 2.61%,97.44 ± 3.13%,95.47 ± 4.92%,
